Laboratory results: US20250074920A1, “MACROCYCLIC COMPOUNDS AND USE AS KINASE INHIBITORS” (BLOSSOMHILL THERAPEUTICS, INC., priority 2022, published 2025)

Experiments:
Assay in all cases: KINOMEscan kinase binding assay
[1] = system: ABL1(Q252H)-nonphosphorylated; conditions: at 1 μM
Method: (§1) Kinase binding assays were performed at Eurofins/DiscoveRx using the general KINOMEscan Protocol (Fabian, M. A. et al., “A small molecule-kinase interaction map for clinical kinase inhibitors,” Nat. Biotechnol. 2005, 23(3):329-36). For most assays, kinase-tagged T7 phage strains were prepared in an E. coli host derived from the BL21 strain. E. coli were grown to log-phase and infected with T7 phage and incubated with shaking at 32° C. until lysis. The lysates were centrifuged and filtered to remove cell debris. The remaining kinases were produced in HEK-293 cells and subsequently tagged with DNA for qPCR detection. Streptavidin-coated magnetic beads were treated with biotinylated small molecule ligands for 30 minutes at room temperature to generate affinity resins for kinase assays. The liganded beads were blocked with excess biotin and washed with blocking buffer (SeaBlock (Pierce), 1% BSA, 0.05% Tween 20, 1 mM DTT) to remove unbound ligand and to reduce nonspecific binding. Binding reactions were assembled by combining kinases, liganded affinity beads, and test compounds in 1× binding buffer (20% SeaBlock, 0.17×PBS, 0.05% Tween 20, 6 mM DTT). All reactions were performed in polystyrene 96-well plates in a final volume of 0.135 mL. The assay plates were incubated at room temperature with shaking for 1 hour and the affinity beads were washed with wash buffer (1×PBS, 0.05% Tween 20). The beads were then re-suspended in elution buffer (1×PBS, 0.05% Tween 20, 0.5 μM non-biotinylated affinity ligand) and incubated at room temperature with shaking for 30 minutes. The kinase concentration in the eluates was measured by qPCR. Results for compounds tested in this assay at a given concentration are reported as “% Ctrl”, where lower numbers indicate stronger binding in the matrix. % Ctrl was calculated as (test compound signal-positive control signal)/(negative control signal-positive control signal)×100. Dissociation constants (Kds) for test compound-kinase interactions were calculated by measuring the amount of kinase captured on the solid support as a function of the test compound concentration.

[2] = system: ABL1(T315I)-nonphosphorylated; conditions: at 1 μM
Method: as §1

[3] = system: ABL2; conditions: at 1 μM
Method: as §1

[4] = system: ALK(C1156Y); conditions: at 1 μM
Method: as §1

[5] = system: ALK(L1196M); conditions: at 1 μM
Method: as §1

[6] = system: BLK; conditions: at 1 μM
Method: as §1

[7] = system: BRK; conditions: at 1 μM
Method: as §1

[8] = system: CSF1R; conditions: at 1 μM
Method: as §1

[9] = system: EGFR(G719C); conditions: at 1 μM
Method: as §1

[10] = system: EGFR(L858R, T790M); conditions: at 1 μM
Method: as §1

[11] = system: EGFR(L861Q); conditions: at 1 μM
Method: as §1

[12] = system: EPHA3; conditions: at 1 μM
Method: as §1

[13] = system: EPHA4; conditions: at 1 μM
Method: as §1

[14] = system: EPHA8; conditions: at 1 μM
Method: as §1

[15] = system: EPHB2; conditions: at 1 μM
Method: as §1

[16] = system: ERBB3; conditions: at 1 μM
Method: as §1

[17] = system: FAK; conditions: at 1 μM
Method: as §1

[18] = system: FGFR2; conditions: at 1 μM
Method: as §1

[19] = system: FGFR3(G697C); conditions: at 1 μM
Method: as §1

[20] = system: FLT3(N841I); conditions: at 1 μM
Method: as §1

[21] = system: FLT3-autoinhibited; conditions: at 1 μM
Method: as §1

[22] = system: FRK; conditions: at 1 μM
Method: as §1

[23] = system: FYN; conditions: at 1 μM
Method: as §1

[24] = system: HCK; conditions: at 1 μM
Method: as §1

[25] = system: INSRR; conditions: at 1 μM
Method: as §1

[26] = system: INSR; conditions: at 1 μM
Method: as §1

[27] = system: JAK3(JH1domain-catalytic)
Method: as §1

[28] = system: KIT(L576P); conditions: at 1 μM
Method: as §1

[29] = system: KIT-autoinhibited; conditions: at 1 μM
Method: as §1

[30] = system: LTK; conditions: at 1 μM
Method: as §1

[31] = system: LYN; conditions: at 1 μM
Method: as §1

[32] = system: MET; conditions: at 1 μM
Method: as §1

[33] = system: MST1R; conditions: at 1 μM
Method: as §1

[34] = system: PYK2; conditions: at 1 μM
Method: as §1

[35] = system: RET(V804L); conditions: at 1 μM
Method: as §1

[36] = system: RET(V804M); conditions: at 1 μM
Method: as §1

[37] = system: ROS1; conditions: at 1 μM
Method: as §1

[38] = system: TEC; conditions: at 1 μM
Method: as §1

[39] = system: TRKA; conditions: at 1 μM
Method: as §1

[40] = system: TXK; conditions: at 1 μM
Method: as §1

[41] = system: TYK2(JH1domain-catalytic)
Method: as §1

Structure (SMILES): Cc1cc2c([nH]1)/C=C1\C(=O)Nc3c(Cl)cc(cc31)-c1cn(C)nc1COC[C@@H](C)N(C)C2=O [Cpd. 5, [3a(4)Z,10R]-20-chloro-6,9,10,15-tetramethyl-10,11,13,15-tetrahydro-2H-1,17-(ethanediylidene)pyrazolo[4,3-m]dipyrrolo[3,2-f:3′,4′-i][1,4]oxazacyclopentadecine-3,8(5H,9H)-dione]
- % Ctrl [1]: 79%
- % Ctrl [2]: 100%
- % Ctrl [3]: 96%
- % Ctrl [4]: 90%
- % Ctrl [5]: 86%
- % Ctrl [6]: 87%
- % Ctrl [7]: 79%
- % Ctrl [8]: 96%
- % Ctrl [9]: 100%
- % Ctrl [10]: 64%
- % Ctrl [11]: 94%
- % Ctrl [12]: 79%
- % Ctrl [13]: 93%
- % Ctrl [14]: 77%
- % Ctrl [15]: 90%
- % Ctrl [16]: 71%
- % Ctrl [17]: 96%
- % Ctrl [18]: 100%
- % Ctrl [19]: 93%
- % Ctrl [20]: 86%
- % Ctrl [21]: 87%
- % Ctrl [22]: 80%
- % Ctrl [23]: 77%
- % Ctrl [24]: 100%
- % Ctrl [25]: 99%
- % Ctrl [26]: 94%
- % Ctrl ([27]; JAK3(JH1domain-catalytic), at 1 μM): 79%
- Kd ([27]; read-out: JAK3(JH1 domain-catalytic) Kd): > 10 µM
- % Ctrl [28]: 97%
- % Ctrl [29]: 83%
- % Ctrl [30]: 93%
- % Ctrl [31]: 91%
- % Ctrl [32]: 96%
- % Ctrl [33]: 95%
- % Ctrl [34]: 83%
- % Ctrl [35]: 84%
- % Ctrl [36]: 90%
- % Ctrl [37]: 69%
- % Ctrl [38]: 94%
- % Ctrl [39]: 53%
- % Ctrl [40]: 94%
- % Ctrl ([41]; TYK2(JH1domain-catalytic), at 1 μM): 69%
- Kd ([41]; read-out: TYK2(JH1 domain-catalytic) Kd): > 10 µM
